Data: US20090099192A1, “Substituted 1H-pyrrole-2,5-diones” (Bayer CropScience AG, priority 2004, published 2009)

Assays:
[1] = test system: caterpillars of the army worm (Spodoptera frugiperda); assay: Spodoptera frugiperda test (cabbage leaves dipped); format: in vivo; details: for Kill rate in % after 7 d: 500 ppm, leaf dip, Brassica oleracea
Protocol: (§1) [table] To produce a suitable preparation of active compound, 1 part by weight of active compound is mixed with the stated amount of solvent and the stated amount of emulsifier, and the concentrate is diluted with emulsifier-containing water to the desired concentration. Cabbage leaves (Brassica oleracea) are treated by being dipped into the active compound preparation of the desired concentration and populated with caterpillars of the army worm (Spodoptera frugiperda) while the leaves are still moist. After the desired period of time, the kill in % is determined. 100% means that all caterpillars have been killed; 0% means that none of the caterpillars have been killed.

[2] = logP determination by HPLC on reversed-phase column (C 18), EEC Directive 79/831 Annex V.A8; format: physicochemical; details: reversed-phase C 18, 43° C., acid range (0.1% aqueous phosphoric acid, acetonitrile), marked a)
How it was run: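 Reversed-phase C18 HPLC at 43° C, per EEC Directive 79/831 Annex V.A8, acid range: 0.1% aqueous phosphoric acid with linear 10–90% acetonitrile gradient. logP derived from retention time by linear interpolation between calibrating unbranched alkan-2-ones (C3–C16) of known logP.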

[3] = test system: larvae of the mustard beetle (Phaedon cochleariae); assay: Phaedon larvae test (cabbage leaves dipped); format: in vivo; details: for Kill rate in % after 7 d: 500 ppm, leaf dip, Brassica oleracea
Protocol: as §1, with “with” for “with emulsifier-containing”, “with larvae” for “with caterpillars”, “the mustard beetle (Phaedon cochleariae)” for “the army worm (Spodoptera frugiperda)”, “all beetle larvae” for “all caterpillars”, “the beetle larvae” for “the caterpillars”

[4] = test system: caterpillars of the army worm (Spodoptera frugiperda); assay: Spodoptera frugiperda test (corn leaf disks sprayed); format: in vivo; details: for Kill rate in % after 7 d: 500 g/ha, spray, Zea mays leaf disks
Protocol: (§2) [table] To produce a suitable preparation of active compound, 1 part by weight of active compound is mixed with the stated amounts of solvents and emulsifier, and the concentrate is diluted with emulsifier-containing water to the desired concentration. Disks of corn leaves (Zea mays) are sprayed with an active compound preparation of the desired concentration and, after drying, populated with caterpillars of the army worm (Spodoptera frugiperda). After the desired period of time, the effect in % is determined. 100% means that all caterpillars have been killed; 0% means that none of the caterpillars have been killed.

[5] = test system: larvae of the mustard beetle (Phaedon cochleariae); assay: Phaedon test (spray treatment); format: in vivo; details: for Kill rate in % after 7 d: 500 g/ha, spray, Brassica pekinensis disks
Protocol: as §2, with “of Chinese cabbage (Brassica pekinensis)” for “of corn leaves (Zea mays)”, “with larvae” for “with caterpillars”, “the mustard beetle (Phaedon cochleariae).” for “the army worm (Spodoptera frugiperda).”, “all beetle larvae” for “all caterpillars”, “the beetle larvae” for “the caterpillars”

[6] = test system: green peach aphid (Myzus persicae); assay: Myzus test (spray treatment, Brassica pekinensis); format: in vivo; details: for Kill rate in % after 5 d: 500 g/ha, spray, Brassica pekinensis disks
Protocol: as §2, with “Chinese cabbage (Brassica pekinensis) which are infested by all stages of the green peach aphid (Myzus persicae)” for “corn leaves (Zea mays)”, “concentration.” for “concentration and, after drying, populated with caterpillars of the army worm (Spodoptera frugiperda).”, “aphids” for “caterpillars”

[7] = test system: common spidermite (Tetranychus urticae); assay: Tetranychus test; format: in vivo; details: for Kill rate in % after 5 d: 500 ppm, spray, Phaseolus vulgaris disks
Protocol: To produce a suitable preparation of active compound, 1 part by weight of active compound is mixed with the stated amounts of solvent and emulsifier, and the concentrate is diluted with emulsifier-containing water to the desired concentration.
Disks of beans (Phaseolus vulgaris), which are infested by all stages of the common spidermite (Tetranychus urticae) are sprayed with an active compound preparation of the desired concentration.
After the desired period of time, the effect in % is determined. 100% means that all spidermites have been killed; 0% means that none of the spidermites have been killed.

[8] = test system: green peach aphid (Myzus persicae); assay: Myzus test - oral; format: in vivo; details: for Kill rate in % after 6 d: 100 ppm, oral (sucking)
Protocol: [table] To produce a suitable preparation of active compound, 1 part by weight of active compound is mixed with the stated amounts of solvent, and the concentrate is diluted with water to the desired concentration. Vessels are populated with all stages of the green peach aphid (Myzus persicae), which are treated by sucking on the active compound preparation of the desired concentration. After the desired period of time, the effect in % is determined. 100% means that all aphids have been killed; 0% means that none of the aphids have been killed.

O=C1C(O)=C(c2cc(Cl)cc(Cl)c2)C(=O)N1c1ccc(Cl)cc1 [Example 11]
activity in the Spodoptera frugiperda test (leaf dip) [1]: good activity | Kill rate in % after 7 d [1]: 100% | logP [2]: logP = 3.27^a)

O=C1C(O)=C(c2ccccc2F)C(=O)N1C1CCCC(C(F)(F)F)C1 (stereo not shown) [Example 213]
activity in the Phaedon larvae test [3]: good activity | Kill rate in % after 7 d [3]: 100% | logP [2]: logP = 3.42^a)

O=C1C(O)=C(c2ccc(C(F)(F)F)cc2)C(=O)N1c1ccc(C(F)(F)F)cc1 [Example 13]
activity in the Spodoptera frugiperda test (leaf dip) [1]: good activity | Kill rate in % after 7 d [1]: 100% | logP [2]: logP = 3.51^a)

O=C1C(O)=C(c2ccccc2Br)C(=O)N1C1CCCC(C(F)(F)F)C1 (stereo not shown) [Example 218]
activity in the Spodoptera frugiperda test (spray) [4]: good activity | Kill rate in % after 7 d [4]: 100% | activity in the Phaedon test (spray treatment) [5]: good activity | Kill rate in % after 7 d [5]: 100% | activity in the Myzus test (spray, Brassica pekinensis) [6]: good activity | Kill rate in % after 5 d [6]: 80%

CC(C)(C)C(=O)OC1=C(c2ccccc2Cl)C(=O)N(C2CCC(C(F)(F)F)CC2)C1=O (stereo not shown) [Example 207]
activity in the Phaedon test (spray treatment) [5]: good activity | Kill rate in % after 7 d [5]: 100% | activity in the Myzus test (spray, Brassica pekinensis) [6]: good activity | Kill rate in % after 5 d [6]: 100% | Kill rate in % after 5 d [7]: 90% | logP [2]: logP = 5.31^a)

O=C1C(O)=C(c2ccccc2Cl)C(=O)N1C1CCCCC1C(F)(F)F (stereo not shown) [Example 205]
activity in the Phaedon test (spray treatment) [5]: good activity | Kill rate in % after 7 d [5]: 100% | Kill rate in % after 6 d [8]: 100% | logP [2]: logP = 3.27^a)

O=C1C(O)=C(c2ccc(OC(F)(F)F)cc2)C(=O)N1c1ccc(OC(F)(F)F)cc1 [Example 9]
activity in the Phaedon larvae test [3]: good activity | Kill rate in % after 7 d [3]: 90% | logP [2]: logP = 4.12^a)

CC(C)C1CCCC(N2C(=O)C(O)=C(c3ccccc3Cl)C2=O)C1 (stereo not shown) [Example 195]
activity in the Spodoptera frugiperda test (spray) [4]: good activity | Kill rate in % after 7 d [4]: 100% | activity in the Phaedon test (spray treatment) [5]: good activity | Kill rate in % after 7 d [5]: 100% | activity in the Myzus test - oral [8]: good activity | Kill rate in % after 6 d [8]: 100%

O=C1C(O)=C(c2cc(F)cc(F)c2F)C(=O)N1C1CCCC(C(F)(F)F)C1 (stereo not shown) [Example 193]
activity in the Phaedon test (spray treatment) [5]: good activity | Kill rate in % after 7 d [5]: 100% | activity in the Tetranychus test [7]: good activity | Kill rate in % after 5 d [7]: 90% | logP [2]: logP = 3.42^a)

Cc1ccccc1C1=C(O)C(=O)N(C2CC(C(F)(F)F)CC(C(F)(F)F)C2)C1=O (stereo not shown) [Example 216]
activity in the Phaedon larvae test [3]: good activity | Kill rate in % after 7 d [3]: 100% | logP [2]: logP = 3.85^a)

O=C1C(O)=C(c2ccccc2I)C(=O)N1C1CCCC(C(F)(F)F)C1 (stereo not shown) [Example 219]
activity in the Spodoptera frugiperda test (spray) [4]: good activity | Kill rate in % after 7 d [4]: 100% | activity in the Phaedon test (spray treatment) [5]: good activity | Kill rate in % after 7 d [5]: 100% | activity in the Myzus test (spray, Brassica pekinensis) [6]: good activity | Kill rate in % after 5 d [6]: 90% | activity in the Myzus test - oral [8]: good activity | Kill rate in % after 6 d [8]: 100%

CCOCOC1=C(c2ccccc2Cl)C(=O)N(C2CCCC(C(F)(F)F)C2)C1=O (stereo not shown) [Example 202]
activity in the Spodoptera frugiperda test (spray) [4]: good activity | Kill rate in % after 7 d [4]: 100% | activity in the Phaedon test (spray treatment) [5]: good activity | Kill rate in % after 7 d [5]: 100% | activity in the Myzus test (spray, Brassica pekinensis) [6]: good activity | Kill rate in % after 5 d [6]: 80% | activity in the Tetranychus test [7]: good activity | Kill rate in % after 5 d [7]: 80% | logP [2]: logP = 4.53^a)

O=C1C(O)=C(c2cc(Cl)cc(Cl)c2)C(=O)N1C1CCC(C(F)(F)F)CC1 (stereo not shown) [Example 212]
activity in the Spodoptera frugiperda test (leaf dip) [1]: good activity | Kill rate in % after 7 d [1]: 100% | activity in the Spodoptera frugiperda test (spray) [4]: good activity | Kill rate in % after 7 d [4]: 100% | activity in the Phaedon test (spray treatment) [5]: good activity | Kill rate in % after 7 d [5]: 100% | activity in the Phaedon larvae test [3]: good activity | Kill rate in % after 7 d [3]: 100% | logP [2]: logP = 4.48^a)

O=C1C(O)=C(c2c(Cl)cc(C(F)(F)F)cc2Cl)C(=O)N1C1CCCC(C(F)(F)F)C1 (stereo not shown) [Example 191]
activity in the Phaedon test (spray treatment) [5]: good activity | Kill rate in % after 7 d [5]: 100% | activity in the Tetranychus test [7]: good activity | Kill rate in % after 5 d [7]: 90% | logP [2]: logP = 4.05^a)

CC1CCCC(N2C(=O)C(O)=C(c3ccccc3Cl)C2=O)C1 (stereo not shown) [Example 196]
activity in the Spodoptera frugiperda test (spray) [4]: good activity | Kill rate in % after 7 d [4]: 100% | activity in the Phaedon test (spray treatment) [5]: good activity | Kill rate in % after 7 d [5]: 100% | activity in the Myzus test - oral [8]: good activity | Kill rate in % after 6 d [8]: 100% | logP [2]: logP = 3.57^a)

O=C1C(O)=C(c2ccccc2C(F)(F)F)C(=O)N1C1CCCC(C(F)(F)F)C1 (stereo not shown) [Example 217]
activity in the Spodoptera frugiperda test (spray) [4]: good activity | Kill rate in % after 7 d [4]: 100% | activity in the Phaedon test (spray treatment) [5]: good activity | Kill rate in % after 7 d [5]: 100% | activity in the Myzus test (spray, Brassica pekinensis) [6]: good activity | Kill rate in % after 5 d [6]: 100% | activity in the Myzus test - oral [8]: good activity | Kill rate in % after 6 d [8]: 100%

O=C1C(O)=C(c2ccc(F)cc2C(F)(F)F)C(=O)N1C1CCCC(C(F)(F)F)C1 (stereo not shown) [Example 192]
activity in the Phaedon test (spray treatment) [5]: good activity | Kill rate in % after 7 d [5]: 100% | activity in the Myzus test - oral [8]: good activity | activity in the Tetranychus test [7]: good activity | Kill rate in % after 5 d [7]: 90% | logP [2]: logP = 3.56^a)

CC(C)(C)C(=O)OC1=C(c2ccccc2I)C(=O)N(C2CCCC(C(F)(F)F)C2)C1=O (stereo not shown) [Example 221]
activity in the Phaedon test (spray treatment) [5]: good activity | Kill rate in % after 7 d [5]: 100% | activity in the Myzus test (spray, Brassica pekinensis) [6]: good activity | Kill rate in % after 5 d [6]: 100% | activity in the Tetranychus test [7]: good activity | Kill rate in % after 5 d [7]: 80%

O=C1C(O)=C(c2ccc(OC(F)(F)F)cc2)C(=O)N1c1ccc(C(F)(F)F)cc1 [Example 12]
activity in the Spodoptera frugiperda test (leaf dip) [1]: good activity | Kill rate in % after 7 d [1]: 100% | logP [2]: logP = 3.97^a)

O=C1C(O)=C(c2ccc(C(F)(F)F)cc2)C(=O)N1C1CCC(C(F)(F)F)CC1 (stereo not shown) [Example 211]
activity in the Phaedon larvae test [3]: good activity | Kill rate in % after 7 d [3]: 90% | logP [2]: logP = 4.28^a)

CC(C)(C)C(=O)OC1=C(c2ccccc2Cl)C(=O)N(C2CCCCC2C(F)(F)F)C1=O (stereo not shown) [Example 206]
activity in the Myzus test (spray, Brassica pekinensis) [6]: good activity | Kill rate in % after 5 d [6]: 90% | logP [2]: logP = 5.22^a)
